Experimental findings from ChEMBL document CHEMBL5465560, “Selectivity Literature for EUbOPEN Chemogenomic Library” (2024) are described below.

The target of test [1] is MAP kinase-interacting serine/threonine-protein kinase 2 (Homo sapiens, UniProt Q9HBH9). The test is described as follows: Selectivity interaction (KinomeScan (DiscoverX)) EUB0001619a MKNK2. Conditions: at 1 µM.
Test [2] concerns the target Phosphatidylinositol 4-kinase beta (Homo sapiens, UniProt Q9UBF8). The test is described as follows: Selectivity interaction (KinomeScan (DiscoverX)) EUB0001619a PI4KB. Particulars: at 1 µM.
Test [3] has as its target Ribosomal protein S6 kinase alpha-2 (Homo sapiens) (UniProt Q15349). Particulars: at 10 µM.
The target in test [4] is T1, Cyclin-G-associated kinase (Homo sapiens) (UniProt O14976).
T1 sequence (whole entry): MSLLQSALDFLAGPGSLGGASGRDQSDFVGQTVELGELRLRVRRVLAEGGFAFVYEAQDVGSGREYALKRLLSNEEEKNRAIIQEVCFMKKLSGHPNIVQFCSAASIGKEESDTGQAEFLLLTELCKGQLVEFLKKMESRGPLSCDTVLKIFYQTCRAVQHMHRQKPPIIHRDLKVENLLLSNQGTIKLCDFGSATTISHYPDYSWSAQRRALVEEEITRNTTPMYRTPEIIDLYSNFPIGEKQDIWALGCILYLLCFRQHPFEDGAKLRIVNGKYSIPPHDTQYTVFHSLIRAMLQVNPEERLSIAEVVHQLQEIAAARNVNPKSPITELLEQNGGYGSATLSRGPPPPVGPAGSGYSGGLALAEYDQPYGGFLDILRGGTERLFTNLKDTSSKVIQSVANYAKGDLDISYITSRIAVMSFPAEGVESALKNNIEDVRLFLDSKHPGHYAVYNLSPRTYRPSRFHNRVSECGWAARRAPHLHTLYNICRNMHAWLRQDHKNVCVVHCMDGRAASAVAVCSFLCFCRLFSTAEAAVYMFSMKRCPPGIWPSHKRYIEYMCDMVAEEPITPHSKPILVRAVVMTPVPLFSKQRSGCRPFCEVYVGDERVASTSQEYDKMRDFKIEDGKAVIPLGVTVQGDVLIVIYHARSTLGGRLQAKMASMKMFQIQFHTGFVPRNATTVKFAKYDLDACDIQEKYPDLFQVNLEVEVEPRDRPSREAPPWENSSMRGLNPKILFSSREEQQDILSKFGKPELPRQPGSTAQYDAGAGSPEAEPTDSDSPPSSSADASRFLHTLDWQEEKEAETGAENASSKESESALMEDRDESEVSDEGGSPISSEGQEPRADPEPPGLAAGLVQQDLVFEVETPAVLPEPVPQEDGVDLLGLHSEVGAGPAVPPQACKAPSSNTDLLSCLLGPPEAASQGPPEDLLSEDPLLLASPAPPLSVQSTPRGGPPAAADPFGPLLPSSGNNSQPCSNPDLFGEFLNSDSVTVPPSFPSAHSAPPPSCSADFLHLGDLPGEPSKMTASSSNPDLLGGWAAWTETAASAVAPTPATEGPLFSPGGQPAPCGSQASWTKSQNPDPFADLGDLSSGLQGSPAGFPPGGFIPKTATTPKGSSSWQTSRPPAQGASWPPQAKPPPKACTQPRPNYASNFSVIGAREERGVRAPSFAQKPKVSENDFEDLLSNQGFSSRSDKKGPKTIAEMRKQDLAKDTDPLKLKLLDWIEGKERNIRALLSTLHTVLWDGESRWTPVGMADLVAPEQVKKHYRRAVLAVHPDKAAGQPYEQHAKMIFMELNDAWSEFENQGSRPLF
The test is described as follows: Selectivity interaction (KinomeScan (DiscoverX)) EUB0000666a GAK. Particulars: at 10 µM.

Test [5] has as its target Cell division control protein 42 homolog (Homo sapiens) (UniProt P60953). The test is described as follows: Selectivity interaction (SelectScreen profiling (Invitrogen)) EUB0000607a CDC42. Particulars: at 2 µM.
Test [6] addresses T2, Dual specificity tyrosine-phosphorylation-regulated kinase 4 (Homo sapiens) (UniProt Q9NR20).
T2 sequence (whole entry): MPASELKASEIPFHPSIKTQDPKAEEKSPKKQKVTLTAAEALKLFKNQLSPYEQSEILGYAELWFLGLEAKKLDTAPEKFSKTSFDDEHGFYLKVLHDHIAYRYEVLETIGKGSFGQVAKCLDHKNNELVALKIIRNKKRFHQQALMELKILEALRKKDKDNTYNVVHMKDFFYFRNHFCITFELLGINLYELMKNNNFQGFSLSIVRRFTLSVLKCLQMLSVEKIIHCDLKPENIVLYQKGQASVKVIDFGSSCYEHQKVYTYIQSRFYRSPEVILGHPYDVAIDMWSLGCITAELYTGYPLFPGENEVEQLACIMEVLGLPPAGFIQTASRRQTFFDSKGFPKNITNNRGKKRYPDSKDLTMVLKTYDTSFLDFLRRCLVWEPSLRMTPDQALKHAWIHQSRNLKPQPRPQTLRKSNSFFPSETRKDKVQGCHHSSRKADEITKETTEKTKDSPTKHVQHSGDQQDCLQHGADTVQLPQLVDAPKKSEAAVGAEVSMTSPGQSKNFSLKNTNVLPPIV
Description: Selectivity interaction (SelectScreen profiling (Invitrogen)) EUB0000607a DYRK4. Particulars: at 2 µM.

The target in test [7] is Serine/threonine-protein kinase SIK2 (Homo sapiens) (UniProt Q9H0K1). Description: Selectivity interaction (Kinase panel (Invitrogen)) EUB0000639a SIK2. Conditions: at 200 nM.
Test [8] concerns the target RAC-beta serine/threonine-protein kinase (Homo sapiens) (UniProt P31751). The test is described as follows: Selectivity interaction (Ambit KINOMEscan and KiNATiv profiling in Jurkat cells) EUB0000090b AKT2. It counts as cell-based. Conditions: at 1 µM.
Test [9] has as its target BMP-2-inducible protein kinase (Homo sapiens) (UniProt Q9NSY1). Description: Selectivity interaction (KinomeScan (DiscoverX)) EUB0001049a BMP2K. Conditions: at 1 µM.
Test [10] has as its target Vascular endothelial growth factor receptor 2 (Homo sapiens, UniProt P35968). The test is described as follows: Selectivity interaction (KinomeScan (DiscoverX)) EUB0000655a KDR. Conditions: at 10 µM.
Test [11] addresses T3, Myosin light chain kinase family member 4 (Homo sapiens) (UniProt Q86YV6).
T3 sequence (whole entry): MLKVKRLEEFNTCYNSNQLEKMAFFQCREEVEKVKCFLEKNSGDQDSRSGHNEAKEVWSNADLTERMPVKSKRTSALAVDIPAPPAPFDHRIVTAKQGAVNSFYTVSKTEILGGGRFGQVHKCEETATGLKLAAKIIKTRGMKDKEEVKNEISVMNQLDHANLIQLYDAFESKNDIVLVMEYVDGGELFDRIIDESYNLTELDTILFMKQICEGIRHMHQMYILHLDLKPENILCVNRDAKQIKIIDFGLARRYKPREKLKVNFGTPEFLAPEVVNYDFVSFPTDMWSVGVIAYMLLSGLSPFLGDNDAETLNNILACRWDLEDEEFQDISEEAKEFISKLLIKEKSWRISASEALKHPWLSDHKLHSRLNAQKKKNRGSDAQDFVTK
The test is described as follows: Selectivity interaction (KinomeScan (DiscoverX)) EUB0000092b MYLK4. Particulars: at 10 µM.

Test [12] addresses 4-aminobutyrate aminotransferase, mitochondrial (Homo sapiens, UniProt P80404). Description: Selectivity interaction (GPCR panel (PDSP screen)) EUB0001079a ABAT. Conditions: at 10 µM.

SMILES strings stand for the structures.

Chain of BMP-2-inducible protein kinase (Homo sapiens) (Q9NSY1 whole entry, looked up): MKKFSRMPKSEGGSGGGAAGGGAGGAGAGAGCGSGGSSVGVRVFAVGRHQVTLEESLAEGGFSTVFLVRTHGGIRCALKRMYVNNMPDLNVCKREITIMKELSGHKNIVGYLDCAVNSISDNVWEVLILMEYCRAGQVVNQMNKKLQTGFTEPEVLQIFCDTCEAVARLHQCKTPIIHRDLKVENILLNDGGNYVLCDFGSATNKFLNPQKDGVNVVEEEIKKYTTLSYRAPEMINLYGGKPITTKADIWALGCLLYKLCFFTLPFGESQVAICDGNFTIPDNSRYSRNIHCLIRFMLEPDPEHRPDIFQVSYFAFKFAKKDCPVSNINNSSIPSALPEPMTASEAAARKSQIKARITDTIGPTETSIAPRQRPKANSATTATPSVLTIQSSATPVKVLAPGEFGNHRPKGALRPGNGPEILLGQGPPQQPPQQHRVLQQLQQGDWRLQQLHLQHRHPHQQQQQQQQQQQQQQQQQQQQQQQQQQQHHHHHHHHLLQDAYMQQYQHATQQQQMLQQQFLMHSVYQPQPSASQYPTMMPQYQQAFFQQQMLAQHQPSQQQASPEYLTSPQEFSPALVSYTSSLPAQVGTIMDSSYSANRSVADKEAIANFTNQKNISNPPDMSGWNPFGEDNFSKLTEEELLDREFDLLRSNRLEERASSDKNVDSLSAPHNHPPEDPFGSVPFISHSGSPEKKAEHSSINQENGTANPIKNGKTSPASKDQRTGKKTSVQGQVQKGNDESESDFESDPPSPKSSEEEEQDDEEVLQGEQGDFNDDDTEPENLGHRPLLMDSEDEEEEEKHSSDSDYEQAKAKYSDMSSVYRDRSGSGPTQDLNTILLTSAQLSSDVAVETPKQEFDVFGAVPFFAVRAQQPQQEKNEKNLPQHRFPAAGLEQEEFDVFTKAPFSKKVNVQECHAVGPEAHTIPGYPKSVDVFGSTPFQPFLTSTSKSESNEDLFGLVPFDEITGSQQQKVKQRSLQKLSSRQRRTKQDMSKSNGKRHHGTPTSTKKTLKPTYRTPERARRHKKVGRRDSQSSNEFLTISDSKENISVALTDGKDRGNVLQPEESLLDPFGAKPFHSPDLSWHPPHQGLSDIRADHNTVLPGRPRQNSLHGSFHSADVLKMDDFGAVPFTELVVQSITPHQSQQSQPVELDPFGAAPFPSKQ
Chain of Vascular endothelial growth factor receptor 2 (P35968 whole entry): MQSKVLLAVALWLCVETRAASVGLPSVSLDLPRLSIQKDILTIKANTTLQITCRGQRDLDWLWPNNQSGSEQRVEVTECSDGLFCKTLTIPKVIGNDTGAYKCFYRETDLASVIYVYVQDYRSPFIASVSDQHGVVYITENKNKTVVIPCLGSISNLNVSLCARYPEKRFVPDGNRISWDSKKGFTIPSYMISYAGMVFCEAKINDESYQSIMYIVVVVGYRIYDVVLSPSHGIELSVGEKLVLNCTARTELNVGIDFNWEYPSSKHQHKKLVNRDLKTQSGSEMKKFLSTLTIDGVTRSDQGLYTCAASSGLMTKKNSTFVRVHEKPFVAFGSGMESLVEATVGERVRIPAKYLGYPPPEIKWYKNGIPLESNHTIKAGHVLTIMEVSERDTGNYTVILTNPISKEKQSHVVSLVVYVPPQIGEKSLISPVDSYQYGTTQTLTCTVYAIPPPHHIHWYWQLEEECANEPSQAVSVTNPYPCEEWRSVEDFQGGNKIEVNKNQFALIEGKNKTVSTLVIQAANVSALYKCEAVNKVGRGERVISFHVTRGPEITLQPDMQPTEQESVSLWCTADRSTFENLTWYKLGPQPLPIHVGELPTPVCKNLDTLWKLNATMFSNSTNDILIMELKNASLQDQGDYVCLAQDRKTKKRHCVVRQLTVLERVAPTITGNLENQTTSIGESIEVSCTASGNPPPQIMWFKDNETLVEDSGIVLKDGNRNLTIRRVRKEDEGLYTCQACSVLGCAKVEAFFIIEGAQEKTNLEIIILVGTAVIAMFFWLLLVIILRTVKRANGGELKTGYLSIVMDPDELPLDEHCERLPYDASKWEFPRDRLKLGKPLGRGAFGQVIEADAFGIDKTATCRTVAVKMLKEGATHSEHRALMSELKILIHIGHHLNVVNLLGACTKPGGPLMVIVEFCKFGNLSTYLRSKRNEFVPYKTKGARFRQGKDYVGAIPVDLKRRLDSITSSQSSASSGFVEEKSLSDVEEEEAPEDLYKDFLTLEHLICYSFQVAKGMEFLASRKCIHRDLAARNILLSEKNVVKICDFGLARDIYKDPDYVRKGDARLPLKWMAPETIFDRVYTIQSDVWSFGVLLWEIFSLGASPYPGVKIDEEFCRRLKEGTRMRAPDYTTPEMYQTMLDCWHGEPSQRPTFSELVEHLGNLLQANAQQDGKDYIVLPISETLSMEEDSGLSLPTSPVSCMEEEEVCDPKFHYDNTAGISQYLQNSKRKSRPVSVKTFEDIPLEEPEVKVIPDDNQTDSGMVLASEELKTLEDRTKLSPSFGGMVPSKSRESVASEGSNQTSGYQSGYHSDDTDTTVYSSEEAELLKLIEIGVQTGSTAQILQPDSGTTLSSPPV
Chain of RAC-beta serine/threonine-protein kinase (Homo sapiens) (P31751 whole entry): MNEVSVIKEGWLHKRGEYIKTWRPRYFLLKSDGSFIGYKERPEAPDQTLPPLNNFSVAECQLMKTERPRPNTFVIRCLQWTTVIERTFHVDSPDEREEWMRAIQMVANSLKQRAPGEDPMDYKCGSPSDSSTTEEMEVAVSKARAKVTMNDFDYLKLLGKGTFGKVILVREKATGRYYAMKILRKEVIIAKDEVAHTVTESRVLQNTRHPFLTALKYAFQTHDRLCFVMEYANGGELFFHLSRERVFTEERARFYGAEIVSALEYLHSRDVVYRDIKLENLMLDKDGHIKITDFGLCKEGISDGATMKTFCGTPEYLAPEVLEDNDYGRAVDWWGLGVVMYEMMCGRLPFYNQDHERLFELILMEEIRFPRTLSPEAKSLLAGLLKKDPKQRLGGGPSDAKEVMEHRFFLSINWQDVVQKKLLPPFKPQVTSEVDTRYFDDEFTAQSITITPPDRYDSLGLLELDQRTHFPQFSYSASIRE
Chain of MAP kinase-interacting serine/threonine-protein kinase 2 (Q9HBH9 whole entry, looked up): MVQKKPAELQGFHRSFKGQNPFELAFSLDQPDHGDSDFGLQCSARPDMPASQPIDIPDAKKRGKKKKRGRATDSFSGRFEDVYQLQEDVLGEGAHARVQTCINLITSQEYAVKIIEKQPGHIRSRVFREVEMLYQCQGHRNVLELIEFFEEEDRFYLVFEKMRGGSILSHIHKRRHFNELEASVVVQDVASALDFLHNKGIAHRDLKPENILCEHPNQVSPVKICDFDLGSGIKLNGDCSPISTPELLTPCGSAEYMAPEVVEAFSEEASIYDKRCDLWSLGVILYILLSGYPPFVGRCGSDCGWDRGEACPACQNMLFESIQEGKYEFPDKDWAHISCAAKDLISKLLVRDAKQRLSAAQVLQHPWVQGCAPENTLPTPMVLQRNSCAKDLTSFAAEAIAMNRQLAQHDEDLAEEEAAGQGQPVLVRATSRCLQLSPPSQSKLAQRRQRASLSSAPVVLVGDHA
Chain of Cell division control protein 42 homolog (Homo sapiens) (P60953 whole entry, looked up): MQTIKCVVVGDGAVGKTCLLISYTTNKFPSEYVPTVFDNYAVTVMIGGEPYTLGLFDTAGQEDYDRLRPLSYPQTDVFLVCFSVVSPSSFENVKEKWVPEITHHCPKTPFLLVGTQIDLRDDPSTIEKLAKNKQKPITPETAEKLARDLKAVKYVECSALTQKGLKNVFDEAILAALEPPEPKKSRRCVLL
Chain of Ribosomal protein S6 kinase alpha-2 (Homo sapiens) (Q15349 whole entry): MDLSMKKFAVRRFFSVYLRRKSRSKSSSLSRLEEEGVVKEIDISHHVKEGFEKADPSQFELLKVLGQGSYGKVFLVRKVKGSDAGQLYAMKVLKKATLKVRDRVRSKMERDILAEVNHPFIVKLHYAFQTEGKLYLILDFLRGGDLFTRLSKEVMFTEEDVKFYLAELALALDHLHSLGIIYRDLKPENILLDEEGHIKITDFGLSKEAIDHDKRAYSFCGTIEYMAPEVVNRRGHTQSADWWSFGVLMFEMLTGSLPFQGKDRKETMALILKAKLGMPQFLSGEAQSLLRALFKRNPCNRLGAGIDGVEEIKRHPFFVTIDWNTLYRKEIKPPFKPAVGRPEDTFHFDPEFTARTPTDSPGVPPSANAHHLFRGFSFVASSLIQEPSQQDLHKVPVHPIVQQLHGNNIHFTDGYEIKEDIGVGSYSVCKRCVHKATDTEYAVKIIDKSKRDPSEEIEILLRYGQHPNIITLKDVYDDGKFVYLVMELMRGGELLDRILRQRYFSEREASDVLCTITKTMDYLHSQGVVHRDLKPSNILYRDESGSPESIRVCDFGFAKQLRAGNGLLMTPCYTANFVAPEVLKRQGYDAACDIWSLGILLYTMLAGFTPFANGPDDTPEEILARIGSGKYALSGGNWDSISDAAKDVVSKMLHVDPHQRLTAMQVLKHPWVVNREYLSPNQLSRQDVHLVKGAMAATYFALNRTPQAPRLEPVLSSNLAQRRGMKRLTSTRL
Chain of 4-aminobutyrate aminotransferase, mitochondrial (P80404 whole entry): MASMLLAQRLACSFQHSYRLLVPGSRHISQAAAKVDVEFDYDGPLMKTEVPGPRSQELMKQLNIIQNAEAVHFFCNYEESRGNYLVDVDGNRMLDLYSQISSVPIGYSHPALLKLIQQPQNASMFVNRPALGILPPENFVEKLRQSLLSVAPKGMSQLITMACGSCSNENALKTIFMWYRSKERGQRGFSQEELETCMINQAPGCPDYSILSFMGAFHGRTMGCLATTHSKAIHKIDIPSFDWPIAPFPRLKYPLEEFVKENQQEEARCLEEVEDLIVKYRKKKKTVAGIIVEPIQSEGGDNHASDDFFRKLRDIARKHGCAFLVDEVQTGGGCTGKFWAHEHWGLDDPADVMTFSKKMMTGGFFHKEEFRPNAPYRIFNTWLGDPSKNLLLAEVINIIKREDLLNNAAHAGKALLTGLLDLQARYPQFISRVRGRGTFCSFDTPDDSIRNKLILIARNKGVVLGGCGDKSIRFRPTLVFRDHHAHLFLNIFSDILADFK

`N#Cc1cccc(-c2c[nH]c3ncnc(N4CCOCC4)c23)c1`: the % of control came to 90% in test [1] and 71% in [2]. `CCN(CC)CCCCNc1ncc2cc(-c3cc(OC)cc(OC)c3)c(NC(=O)NC(C)(C)C)nc2n1` showed a % of control in test [3] of 100%.

`O=C(NOC[C@H](O)CO)c1ccc(F)c(F)c1Nc1ccc(I)cc1F` showed a % of control in [4] of 71%.

Consider `CNC(=O)Nc1ccc(-c2nc(N3CC4CCC(C3)O4)c3cnn(C4CCC5(CC4)OCCO5)c3n2)cc1`, for which the % of inhibition in test [5] was 7%; in [6], 4%. In the case of `CC[C@@H]1[C@H](F)C(=O)N[C@@H]1COc1nccc2cc(C(N)=O)c(OC)cc12` [ZIMLOVISERTIB], the % of inhibition in test [7] is 2.07%. In test [8], `CN(C)C/C=C/C(=O)Nc1ccc(C(=O)N2CCCC(Nc3ncc(Cl)c(-c4c[nH]c5ccccc45)n3)C2)cc1` (configuration not stated) returned a % of control of 80%.

Turning to `COc1cc(Nc2nc(C)cc(-c3cnn4nc(OC)ccc34)n2)cc(C(F)(F)F)c1`, the % of control in [9] was determined as 86%.

In test [10], `CN(C)CCOc1ccc(-c2nc(-c3ccncc3)c(-c3ccc4c(c3)CC/C4=N\O)[nH]2)cc1` gave a % of control of 100%. `CCC(=O)N1CCN(c2ccc(-n3c(=O)ccc4cnc5ccc(-c6cnc7ccccc7c6)cc5c43)cc2C(F)(F)F)CC1` yielded a % of control in [11] of 83%. In the case of `Nc1cnc(N2CCc3cc(S(=O)(=O)Nc4c(F)cc(Cl)cc4F)cc(N4CCCC4=O)c32)nc1` [TP-020n], the % of inhibition in test [12] was -2.65%.
